Assay results published in article PMC9086926 (RSC Advances, 2018).

Assays:
[1] = Absorptive permeability across traditional 21 day Caco-2 cell model; conditions: human
[2] = Absorptive permeability across 7 day fast model; conditions: human, Caco-2
[3] = cited from earlier work

Structure (SMILES) | Papp A→B at 25 μM [1] [×10⁻⁶ cm/s] | Papp A→B at 25 μM [2] [×10⁻⁶ cm/s] | FA (human absorption fraction) [3] [%]
CC(NC(C)(C)C)C(=O)c1cccc(Cl)c1 (stereo not shown) [Bupropion] | 16.6 ± 0.99 | 12.9 ± 0.48 | –
NC(=O)N1c2ccccc2C=Cc2ccccc21 [Carbamazepine] | 20.9 ± 1.93 | 19.5 ± 0.87 | 100
O=C(N[C@H](CO)[C@H](O)c1ccc([N+](=O)[O-])cc1)C(Cl)Cl [Chloramphenicol] | 8.17 ± 0.06 | 7.12 ± 0.04 | –
CCc1cc(C(N)=S)ccn1 [Ethionamide] | 23.8 ± 0.94 | 20.4 ± 5.5 | 80
CCOC(=O)C1=C(C)NC(C)=C(C(=O)OC)C1c1cccc(Cl)c1Cl (stereo not shown) [Felodipine] | 4.34 ± 0.63 | – | –
CC(=O)N1CCN(c2ccc(OCC3COC(Cn4ccnc4)(c4ccc(Cl)cc4Cl)O3)cc2)CC1 (stereo not shown) [Ketoconazole] | 9.61 ± 0.01 | 8.33 ± 0.93 | 76
CC(C(=O)O)c1cccc(C(=O)c2ccccc2)c1 (stereo not shown) [Ketoprofen] | 19.2 ± 1.93 | 15 ± 1.97 | –
Nc1nnc(-c2cccc(Cl)c2Cl)c(N)n1 [Lamotrigine] | – | – | 98
COCCc1ccc(OCC(O)CNC(C)C)cc1 (stereo not shown) [Metoprolol] | 12.1 ± 0.39 | 11.8 ± 0.25 | –
COc1ccc2[nH]c([S+]([O-])Cc3ncc(C)c(OC)c3C)nc2c1 (stereo not shown) [Omeprazole] | 12.6 ± 2.01 | 11.4 ± 0.47 | 80
CC(C)NCC(O)COc1cccc2ccccc12 (stereo not shown) [Propranolol] | 10.6 ± 1.66 | 9.37 ± 0.03 | –
COC(=O)[C@H]1[C@H]2C[C@@H]3c4[nH]c5cc(OC)ccc5c4CCN3C[C@H]2C[C@@H](OC(=O)c2cc(OC)c(OC)c(OC)c2)[C@@H]1OC [Reserpine] | 3.5 ± 0.69 | 3.6 ± 0.43 | 50
Nc1ccc(S(=O)(=O)Nc2ncccn2)cc1 [Sulfadiazine] | 9.76 ± 1.05 | – | 65
CC(C)(C)NCC(O)c1cc(O)cc(O)c1 (stereo not shown) [Terbutaline] | 15.6 ± 1.28 | 16.6 ± 0.7 | 73
CC(=O)CC(c1ccccc1)c1c(O)c2ccccc2oc1=O (stereo not shown) [Warfarin sodium] | 15.31 ± 0.002 | 14.44 ± 0.11 | –
